# Assay results taken from ChEMBL document CHEMBL1141727, “Isolation and cytotoxic evaluation of marine sponge-derived norterpene peroxides” (J Nat Prod, 1998).
# How the values were obtained:
# Type in all cases: functional
# CCRF-CEM = assay: Growth inhibition of human CCRF-CEM cells
# HL-60(TB) = assay: Growth inhibition of human HL-60(TB) cells
# MOLT-4 = assay: Growth inhibition of human MOLT4 cells
# [1] = Growth inhibition of human […] cells
# SR = assay: Growth inhibition of human SR cells
# A549 = assay: Growth inhibition of human A549 cells
# EKVX = assay: Growth inhibition of human EKVX cells
# HOP-62 = assay: Growth inhibition of human HOP62 cells
# HOP-92 = assay: Growth inhibition of human HOP92 cells
# NCI-H226 = assay: Growth inhibition of human NCI-H226 cells
# NCI-H23 = assay: Growth inhibition of human NCI-H23 cells
# NCI-H322M = assay: Growth inhibition of human NCI-H322M cells
# NCI-H460 = assay: Growth inhibition of human NCI-H460 cells
# NCI-H522 = assay: Growth inhibition of human NCI-H522 cells
# COLO 205 = assay: Growth inhibition of human COLO205 cells
# HCC 2998 = assay: Growth inhibition of human HCC2998 cells
# HCT-116 = assay: Growth inhibition of human HCT116 cells
# HCT-15 = assay: Growth inhibition of human HCT15 cells
# HT-29 = assay: Growth inhibition of human HT-29 cells
# KM12 = assay: Growth inhibition of human KM12 cells
# SW-620 = assay: Growth inhibition of human SW620 cells
# SF-295 = assay: Growth inhibition of human SF295 cells
# SF-539 = assay: Growth inhibition of human SF539 cells
# SNB-75 = assay: Growth inhibition of human SNB75 cells
# U-251 = assay: Growth inhibition of human U251 cells
# Malme-3M = assay: Growth inhibition of human MALME-3M cells
# M14 = assay: Growth inhibition of human M14 cells
# SK-MEL-2 = assay: Growth inhibition of human SK-MEL-2 cells
# SK-MEL-28 = assay: Growth inhibition of human SK-MEL-28 cells
# SK-MEL-5 = assay: Growth inhibition of human SK-MEL-5 cells
# UACC-257 = assay: Growth inhibition of human UACC257 cells
# UACC-62 = assay: Growth inhibition of human UACC62 cells
# IGROV-1 = assay: Growth inhibition of human IGROV1 cells
# OVCAR-3 = assay: Growth inhibition of human OVCAR-3 cells
# OVCAR-4 = assay: Growth inhibition of human OVCAR4 cells
# OVCAR-5 = assay: Growth inhibition of human OVCAR5 cells
# OVCAR-8 = assay: Growth inhibition of human OVCAR8 cells
# SK-OV-3 = assay: Growth inhibition of human SKOV3 cells
# 786-0 = assay: Growth inhibition of human 786-0 cells
# A498 = assay: Growth inhibition of human A498 cells
# ACHN = assay: Growth inhibition of human ACHN cells
# CAKI-1 = assay: Growth inhibition of human Caki1 cells
# RXF 393 = assay: Growth inhibition of human […] cells
# SN12C = assay: Growth inhibition of human SN12C cells
# UO-31 = assay: Growth inhibition of human UO31 cells
# DU-145 = assay: Growth inhibition of human DU145 cells
# MCF7 = assay: Growth inhibition of human MCF7 cells
# [2] = Growth inhibition of human MCF7/ADR resistant cells; settings: NCI/ADR-RES
# MDA-MB-231 = assay: Growth inhibition of human MDA-MB-231 cells
# [3] = Growth inhibition of human Hs 578T cells
# MDA-MB-435 = assay: Growth inhibition of human MDA-MB-435 cells
# MDA-N = assay: Growth inhibition of human MDA-N cells
# BT-549 = assay: Growth inhibition of human BT549 cells
# T47D = assay: Growth inhibition of human T47D cells
# L1210 = assay: Growth inhibition of mouse L1210 cells assessed as zone units at 50 ug/disk by disk diffusion agar colony formation assay
# P388 = assay: Growth inhibition of mouse P388 cells assessed as zone units at 50 ug/disk by disk diffusion agar colony formation assay
# PO3 = assay: Growth inhibition of mouse PO3 cells assessed as zone units at 50 ug/disk by disk diffusion agar colony formation assay
# [4] = Growth inhibition of mouse M17/ADR cells assessed as zone units at 50 ug/disk by disk diffusion agar colony formation assay
# CX-1 = assay: Growth inhibition of human CX-1 cells assessed as zone units at 50 ug/disk by disk diffusion agar colony formation assay
# K562 = assay: Growth inhibition of human K562 cells
# SNB-19 = assay: Growth inhibition of human SNB19 cells
# LOX IMVI = assay: Growth inhibition of human LOXIMVI cells
# TK-10 = assay: Growth inhibition of human TK10 cells
# PC-3 = assay: Growth inhibition of human PC3 cells
# MC-38 = assay: Growth inhibition of mouse C38 cells assessed as zone units at 50 ug/disk by disk diffusion agar colony formation assay
smiles,measurement,setting,value
C=C1CCC[C@H]2[C@](C)(CCC(C)=O)[C@@H](C)CC[C@]12C,GI50,CCRF-CEM,> 15 µM
same,GI50,HL-60(TB),> 15 µM
same,GI50,MOLT-4,> 15 µM
same,GI50,[1],> 15 µM
same,GI50,SR,> 15 µM
same,GI50,A549,> 15 µM
same,GI50,EKVX,> 15 µM
same,GI50,HOP-62,> 15 µM
same,GI50,HOP-92,> 15 µM
same,GI50,NCI-H226,> 15 µM
same,GI50,NCI-H23,> 15 µM
same,GI50,NCI-H322M,> 15 µM
same,GI50,NCI-H460,> 15 µM
same,GI50,NCI-H522,> 15 µM
same,GI50,COLO 205,> 15 µM
same,GI50,HCC 2998,> 15 µM
same,GI50,HCT-116,> 15 µM
same,GI50,HCT-15,> 15 µM
same,GI50,HT-29,> 15 µM
same,GI50,KM12,> 15 µM
same,GI50,SW-620,> 15 µM
same,GI50,SF-295,> 15 µM
same,GI50,SF-539,> 15 µM
same,GI50,SNB-75,3.02 µM
same,GI50,U-251,> 15 µM
same,GI50,Malme-3M,> 15 µM
same,GI50,M14,> 15 µM
same,GI50,SK-MEL-2,> 15 µM
same,GI50,SK-MEL-28,> 15 µM
same,GI50,SK-MEL-5,> 15 µM
same,GI50,UACC-257,> 15 µM
same,GI50,UACC-62,> 15 µM
same,GI50,IGROV-1,> 15 µM
same,GI50,OVCAR-3,> 15 µM
same,GI50,OVCAR-4,> 15 µM
same,GI50,OVCAR-5,> 15 µM
same,GI50,OVCAR-8,> 15 µM
same,GI50,SK-OV-3,> 15 µM
same,GI50,786-0,> 15 µM
same,GI50,A498,> 15 µM
same,GI50,ACHN,> 15 µM
same,GI50,CAKI-1,> 15 µM
same,GI50,RXF 393,> 15 µM
same,GI50,SN12C,> 15 µM
same,GI50,UO-31,> 15 µM
same,GI50,DU-145,> 15 µM
same,GI50,MCF7,> 15 µM
same,GI50,[2],> 15 µM
same,GI50,MDA-MB-231,> 15 µM
same,GI50,[3],> 15 µM
same,GI50,MDA-MB-435,> 15 µM
same,GI50,MDA-N,> 15 µM
same,GI50,BT-549,> 15 µM
same,GI50,T47D,> 15 µM
same,Activity,L1210,0 Zone units
same,Activity,P388,0 Zone units
same,Activity,PO3,0 Zone units
same,Activity,[4],0 Zone units
same,Activity,CX-1,100 Zone units
"C=C1CCCC(C)(C)C1CCC1(C)CC[C@H]([C@@H](C)C(=O)O)OO1 (single isomer, unassigned) [NAPAPUIN B]",GI50,CCRF-CEM,1.76 µM
same,GI50,HL-60(TB),1.63 µM
same,GI50,K562,3.3 µM
same,GI50,MOLT-4,2.16 µM
same,GI50,[1],3.91 µM
same,GI50,SR,1.8 µM
same,GI50,A549,3.05 µM
same,GI50,EKVX,3.19 µM
same,GI50,HOP-62,2.11 µM
same,GI50,HOP-92,2.23 µM
same,GI50,NCI-H226,12.5 µM
same,GI50,NCI-H23,7.61 µM
same,GI50,NCI-H322M,12.5 µM
same,GI50,NCI-H460,1.83 µM
same,GI50,NCI-H522,1.21 µM
same,GI50,COLO 205,8.31 µM
same,GI50,HCC 2998,6.78 µM
same,GI50,HCT-116,5.19 µM
same,GI50,HCT-15,10.7 µM
same,GI50,HT-29,9.26 µM
same,GI50,KM12,4.82 µM
same,GI50,SW-620,7.23 µM
same,GI50,SF-295,5.44 µM
same,GI50,SF-539,3.28 µM
same,GI50,SNB-19,> 12.5 µM
same,GI50,SNB-75,3.39 µM
same,GI50,U-251,4.33 µM
same,GI50,LOX IMVI,0.25 µM
same,GI50,Malme-3M,> 12.5 µM
same,GI50,M14,12.2 µM
same,GI50,SK-MEL-2,5.06 µM
same,GI50,SK-MEL-28,> 12.5 µM
same,GI50,SK-MEL-5,6.14 µM
same,GI50,UACC-257,> 12.5 µM
same,GI50,UACC-62,9.24 µM
same,GI50,IGROV-1,0.63 µM
same,GI50,OVCAR-3,2.49 µM
same,GI50,OVCAR-4,2.4 µM
same,GI50,OVCAR-5,> 12.5 µM
same,GI50,OVCAR-8,> 12.5 µM
same,GI50,SK-OV-3,9.24 µM
same,GI50,786-0,0.94 µM
same,GI50,A498,> 12.5 µM
same,GI50,ACHN,7.83 µM
same,GI50,CAKI-1,2 µM
same,GI50,RXF 393,5.04 µM
same,GI50,SN12C,11.3 µM
same,GI50,TK-10,4.06 µM
same,GI50,UO-31,4.31 µM
same,GI50,PC-3,> 12.5 µM
same,GI50,DU-145,2.71 µM
same,GI50,MCF7,> 12.5 µM
same,GI50,[2],8.78 µM
same,GI50,MDA-MB-231,7.44 µM
same,GI50,[3],8.74 µM
same,GI50,MDA-MB-435,2.69 µM
same,GI50,MDA-N,3.52 µM
same,GI50,BT-549,1.05 µM
same,GI50,T47D,3.35 µM
same,Activity,L1210,230 Zone units
same,Activity,P388,230 Zone units
same,Activity,MC-38,300 Zone units
same,Activity,[4],330 Zone units
same,Activity,CX-1,200 Zone units
